Test results reported in PubChem BioAssay AID1200 (NMMLSC, 2008).
Activity calls are given as the source filed them. The rule behind the calls is not given here.

Columns and labels:
[1] = test system: prostate cells, cell count (flow cytometry events), cytotoxicity; test: prostate cell loss as cytotoxicity readout, dose response, cytotoxicity control for prostate cell differentiation activator project, flow cytometry event count (AID 1200)
[2] = as above; settings: prostate cells, cell count (flow cytometry events), cytotoxicity; at 30 µM (top of the series)

Compound	EC50 [1]	cell count (% of control) [2]
Cc1ccccc1-c1nc(CN2CCC(C(=O)NCCCN3CCOCC3)CC2)c(C)o1	3.44 µM (inactive)	–
CCOC(=O)c1c(C)[nH]c(C(=O)COC(=O)C2CC2C)c1C (centres undefined)	0.441 µM	–
CCN(CCNC(=O)C1CCN(Cc2nc(-c3cccc(Cl)c3)oc2C)CC1)c1ccccc1	–	141% (inactive)
CCc1ccc(-c2nc(CN3CCC(C(=O)NCc4ccc(F)cc4)CC3)c(C)o2)cc1	1.8 µM	–
CCOC(=O)c1ccccc1NC(=O)Cn1c(-c2nonc2N)nc2ccccc21	0.137 µM	–
CCN(CC)CCCNC(=O)c1cc2c(-c3ccc(Cl)cc3)nn(C)c2s1	2.64 µM	–
Cc1ccccc1-c1nc(CN2CCCC(C(=O)NCCCN3CCOCC3)C2)c(C)o1 (centres undefined)	13.9 µM (inactive)	–
COc1ccc(-c2cc(C(F)(F)F)nc(N3CCN(Cc4ccccc4)CC3)n2)cc1OC	9.88 µM (inactive)	–
CCOC(=O)c1c(C)n(C)c2ccc(OCC(O)CNC(CC)CO)cc12 (centres undefined)	10.9 µM (inactive)	–
CCN1CCCC1CNC(=O)c1cc2c(-c3ccc(Cl)cc3)nn(C)c2s1 (centres undefined)	4.83 µM	–
Cn1nc(-c2ccc(Cl)cc2)c2cc(C(=O)NCCCN3CCOCC3)sc21	10.1 µM (inactive)	–
CN(C)CCCN1c2ccccc2CCc2ccc(Cl)cc21	5.46 µM	–
Cc1oc(-c2ccc(Cl)cc2)nc1CN1CCC(C(=O)N2CCN(Cc3ccccc3)CC2)CC1	3.29 µM	–
COc1cc2nc(N3CCN(C(=O)C4COc5ccccc5O4)CC3)nc(N)c2cc1OC (centres undefined)	9.6 µM (inactive)	–
CCCc1cc(-c2n[nH]c(C)c2-c2ccc(C(=O)OCC)o2)c(O)cc1O	3.64 µM (inactive)	–
C[C@H]1CCC/C=C/C2C[C@H](O)CC2[C@H](O)/C=C/C(=O)O1 (some centres undefined)	–	129% (inactive)
Cn1c(=O)cc(OCC(=O)NCCCN2CCN(c3ccccc3F)CC2)c2ccccc21	14 µM (inactive)	–
Oc1c(CN2CCCCC2)cc(COCc2ccccc2)c2cccnc12	2.96 µM	–
O=c1cc(-c2ccccc2)[nH]c2ccccc12	–	105% (inactive)
Cc1ccccc1-c1nc(CN2CCC(C(=O)NCCCN3CCCC3)CC2)c(C)o1	0.358 µM (inactive)	–
O=C(NCCCN1CCN(c2cccc(Cl)c2)CC1)c1cccc(N2CCCC2=O)c1	11.2 µM	–
CCCS(=O)(=O)N1CCCC(C(=O)NCCCN2CCN(c3ccc(F)cc3)CC2)C1 (centres undefined)	0.328 µM (inactive)	–
CC(C)N1CCC2(CC1)N=C(c1ccc3c(c1)OCO3)CC(c1cc(Cl)ccc1O)N2 (centres undefined)	1.86 µM	–
COc1ccc(-c2noc(CCC(=O)NCCCN3CCC(Cc4ccccc4)CC3)n2)cc1	–	276% (inactive)

Compound	EC50 [1]	cell count (% of control) [2]
CCOc1ccc(-c2cc(C(=O)NCCCN3CCN(CC)CC3)c3ccccc3n2)cc1	11.1 µM (inactive)	–
CCN1CCN(c2ncc(C(=O)Nc3cc(Cl)c(OC)cc3OC)c3ccccc23)CC1	2.94 µM	–
O=S1(=O)C=C(Sc2nc3ccccc3s2)c2ccccc21	0.959 µM	–
Cc1ccc(OCC(O)Cn2c(=N)n(CCN3CCCCC3)c3ccccc32)cc1 (centres undefined)	3.48 µM	–
COc1ccc(N2CCN(CCCNC(=O)CC3Oc4ccc(C)cc4NC3=O)CC2)cc1 (centres undefined)	3.54 µM (inactive)	–
CN1CCN(CCCNC(=O)c2cc3c(-c4ccc(Cl)cc4)nn(C)c3s2)CC1	4.25 µM	–
Cc1ccc(C)c(N2CCN(CCCNC(=O)Cn3cc4c(n3)CCCCC4)CC2)c1	11.1 µM	–
Cc1cc2c(=O)n(CC(=O)N3CCN(c4ccccc4)CC3)cnc2s1	0.0344 µM (inactive)	–
CCOC(=O)c1[nH]c(C)c(C(=O)N2CCc3ccccc32)c1C	0.139 µM	–
CCOc1ccccc1NC(=O)c1nc[nH]c1C(=O)Nc1ccccc1OCC	3.26 µM (inactive)	–
CCN1CCN(c2cc(C)c3cc(NC(=O)c4ccc(Br)o4)ccc3n2)CC1	3.98 µM	–
COc1ccc(-c2oc3ncn(CCN4CCOCC4)c(=N)c3c2-c2ccc(OC)cc2)cc1	3.2 µM	–
Cc1cccc(-c2nsc(SCC(=O)Nc3nccs3)n2)c1	3.45 µM (inactive)	–
O=C(Cn1cc2c(n1)CCCC2)NCCCN1CCN(c2ccccc2F)CC1	–	382% (inactive)
COc1ccc(N2CCN(CCCNC(=O)c3cc4sccc4n3C)CC2)cc1	10.1 µM (inactive)	–
COc1ccc(CCn2c(=N)c(C(=O)NCc3ccco3)cc3c(=O)n4ccccc4nc32)cc1	10.2 µM (inactive)	–
Cc1ccc(Cl)cc1N1CCN(C(=O)c2cc3c(=O)n(C)c4ccccc4c3n2C)CC1	0.155 µM	–
CC(C)(C)c1ccc(C(O)CCCN2CCC(C(O)(c3ccccc3)c3ccccc3)CC2)cc1 (centres undefined)	0.00318 µM (inactive)	–
CCn1c(=O)cc(SCC(=O)NCCN2CCN(Cc3ccccc3)CC2)c2ccccc21	14.5 µM (inactive)	–
Cc1ccc(CNc2nc3ccccc3n3nnnc23)cc1	–	348% (inactive)
O=C(NCCCN1CCN(c2ccc(F)cc2)CC1)c1cccc(N2CCCC2=O)c1	0.441 µM (inactive)	–
CN1CCN(c2cc3c(c4c2[nH]c2ccccc24)C(=O)CC(C)(C)C3)CC1	4.6 µM	–
Cc1nc2ncnn2c(C)c1CCC(=O)NCCCN1CCN(c2cccc(Cl)c2)CC1	–	1150% (inactive)
Nc1ccc(-n2ccnc2)cc1	1.04 µM (inactive)	–

Compound	EC50 [1]	cell count (% of control) [2]
Cc1cc(N2CCN(C)CC2)nc2ccc(NC(=O)c3ccc(Br)o3)cc12	8.72 µM	–
Cc1ccccc1-c1nc(CN2CCC(C(=O)NCCCN3CC(C)CC(C)C3)CC2)c(C)o1 (centres undefined)	2.11 µM	–
CN(CCNC(=O)C1CC(=O)N(c2ccc(F)c(Cl)c2)C1)Cc1ccccc1 (centres undefined)	27.5 µM (inactive)	–
COc1ccccc1N1CCN(Cc2cc(Br)c(O)c3ncccc23)CC1	1.09 µM	–
COc1ccc(CCN2CCC(Nc3nc4ccccc4n3Cc3ccc(F)cc3)CC2)cc1	7.83 µM (inactive)	–
Cc1cc(C)nc(N2CCC(C(=O)Nc3ccc(Oc4ccccc4)cc3)CC2)n1	–	264% (inactive)
CC1CCCCN1CCNC(=O)c1ccc2c(=O)n(CCc3ccccc3)c(=O)[nH]c2c1 (centres undefined)	10.5 µM (inactive)	–
CCN1CCN(CCNC(=O)C2CCN(Cc3nc(-c4ccc(Cl)cc4)oc3C)CC2)CC1	8.88 µM (inactive)	–
CCN(CC)CCNC(=O)c1cc2c(-c3ccc(Cl)cc3)nn(C)c2s1	3.88 µM	–
COc1ccc(N2CCN(CCCNC(=O)CCCn3c(=O)[nH]c4ccsc4c3=O)CC2)cc1	–	330% (inactive)
COc1ccc(-c2noc(-c3cc(Cl)ccc3Cl)n2)cc1OC	–	347% (inactive)
COc1ccc2cc3cc(C(=O)Nc4ccccc4N4CCN(C)CC4)oc3nc2c1	2.06 µM	–
CCOc1ccc(NC(=O)COc2nsnc2N2CCCCC2)cc1	–	226% (inactive)
Cc1ccc2c(c1)-c1c(cnn1CC(=O)Nc1ccccc1N1CCN(C)CC1)CO2	9.77 µM	–
CN(CC(O)COc1ccc(OCC(O)CN(C)C2CCCCC2)cc1)C1CCCCC1 (centres undefined)	0.424 µM	–
COc1ccccc1NC(=O)c1nc[nH]c1C(=O)Nc1ccccc1OC	–	546% (inactive)
CCn1c(=N)n(CC(O)COc2cccc(C)c2)c2ccccc21 (centres undefined)	–	266% (inactive)
CCn1c(=O)cc(SCC(=O)NCCCN2CCN(c3ccccc3F)CC2)c2ccccc21	15.6 µM (inactive)	–
Cc1ccccc1-c1nc(CN2CCC(C(=O)NCc3cccnc3)CC2)c(C)o1	1.99 µM	–
N=c1n(CCN2CCCCC2)c2ccccc2n1CC(O)COc1ccccc1 (centres undefined)	–	311% (inactive)
COc1ccccc1N1CCN(c2nc3ccccc3nc2C(C#N)C(=O)OC(C)C)CC1 (centres undefined)	9.78 µM (inactive)	–
O=C(CCN1C(=O)COc2ccccc21)NCCCN1CCN(c2ccc(F)cc2)CC1	> 30 µM (inactive)	–
COc1ccc(Nc2nc(N)nc(CN3CCC(Cc4ccccc4)CC3)n2)cc1	2.46 µM	–
CN(C)c1ccc(CNC2CC(C)(C)NC(C)(C)C2)cc1	> 30 µM (inactive)	–

Compound	EC50 [1]	cell count (% of control) [2]
CCN1CCCC1CNC(=O)C1CCN(Cc2nc(-c3cccc(Br)c3)oc2C)CC1 (centres undefined)	1.14 µM	–
Cc1oc(-c2ccc(Cl)cc2)nc1CN1CCC(C(=O)NCCCN2CCOCC2)CC1	17.8 µM (inactive)	–
COc1ccc(-c2ccc(-c3noc(-c4ccccc4)n3)c(OC)n2)cc1	3.16 µM (inactive)	–
Cn1c(=O)[nH]c(=O)c2c1nc(Br)n2CCCSc1nc2ccccc2o1	–	227% (inactive)
Cc1ccc(Nc2cc(=O)n(C3CCCCC3)c(=O)[nH]2)cc1C	–	196% (inactive)
CCCOc1ccccc1C1CC(=O)Nc2cc3c(cc21)OCO3 (centres undefined)	0.373 µM (inactive)	–
Cn1c(=O)cc(SCC(=O)NCCCN2CCN(c3ccccc3F)CC2)c2ccccc21	1.17 µM	–
CCN(CC)CC(=O)Nc1ccc(-c2nc3cc(NC(=O)CN(CC)CC)ccc3o2)cc1	8.06 µM	–
CCN1CCN(C(c2cccs2)C(C)NS(=O)(=O)c2ccc(Br)cc2)CC1 (centres undefined)	10.1 µM (inactive)	–
Clc1ccc(COC(Cn2ccnc2)c2ccc(Cl)cc2Cl)cc1 (centres undefined)	–	350% (inactive)
Cn1nc(-c2ccc(Cl)cc2)c2cc(C(=O)NCCCN3CCCC3)sc21	4.21 µM	–
CCN(CC)CCNC(=O)c1ccc(N2CCCCC2)c(NS(=O)(=O)c2ccc(C)cc2)c1	0.145 µM	–
Cn1c(C(=O)NCCCN2CCN(c3cccc(Cl)c3)CC2)cc2c(=O)n(C)c3ccccc3c21	5.27 µM	–
CCN(CCNC(=O)C1CCN(Cc2nc(-c3ccc(Cl)cc3)oc2C)CC1)c1ccccc1	–	22% (inactive)
COc1ccc(Cc2nc(-c3ccc(-n4cccc4)cc3)no2)cc1OC	3.01 µM (inactive)	–
Cc1ccccc1CS(=O)(=O)CCC(=O)NCCCN1CCN(c2ccccc2F)CC1	–	854% (inactive)
O=C(c1ccccc1)c1ccc(N2CCNCC2)cc1	> 30 µM (inactive)	–
CC1CCCCN1CCNC(=O)c1cc2c(-c3ccccc3F)nn(C)c2s1 (centres undefined)	8.61 µM	–
CCOc1cccc2cc(-c3cn4cc(C)ccc4n3)c(=O)oc12	–	44.8% (inactive)
Cc1cc(N2CCN(C)CC2)nc2ccc(NC(=O)c3ccc4c(c3)OCO4)cc12	–	102% (inactive)
COC(=O)c1cc(-c2ccccc2)sc1NC(=O)c1cc(C)on1	0.326 µM (inactive)	–
CCCN(CCC)CCNC(=O)C1CCN(Cc2nc(-c3ccc(Cl)cc3)oc2C)CC1	6.46 µM	–
